Reference: ChEMBL document CHEMBL4052718, “Stereospecific inhibition of nitric oxide production in macrophage cells by flavanonols: Synthesis and the structure-activity relationship. Part 2” (Bioorg Med Chem, 2017)

Key:
RAW264.7 [1] = assay: Inhibition of LPS-stimulated nitric oxide production in […] cells at 100 uM pretreated for 2 hrs followed by LPS-stimulation after 16 hrs by Griess assay relative to control; assay type: functional; conditions: Mus musculus
RAW264.7 [2] = assay: Inhibition of LPS-stimulated nitric oxide production in […] cells pretreated for 2 hrs followed by LPS-stimulation after 16 hrs by Griess assay; assay type: functional, cell-based; conditions: Mus musculus
RAW264.7 [3] = assay: Cytotoxicity against LPS-stimulated […] cells assessed as reduction in cell viability at 100 uM pretreated for 2 hrs followed by LPS-stimulation after 16 hrs by alamar blue assay; assay type: cell-based; conditions: raw264.7, 16 h
[4] = Cytotoxicity against LPS-stimulated […] cells assessed as cell viability pretreated for 2 hrs followed by LPS-stimulation after 16 hrs by alamar blue assay relative to control; assay type: cell-based; parameters: concentration or dose not given beside the values; conditions: LPS-stimulated RAW264.7 cells; read-out: Activity

IC50 (RAW264.7 [2]) [µM]	SMILES	inhibition at 100 µM (RAW264.7 [1]) [%]	Activity (RAW264.7 [3])	viability at 16 h [4] [%]
–	COc1cc(OC)c2c(c1)O[C@H](c1cccc(O)c1O)[C@@H](O)C2=O	70	–	–
70.7	O=C1c2ccc(O)cc2O[C@H](c2cccc(O)c2O)[C@H]1O	70	Non-Toxic	≥ 100
30.3	COc1ccc2c(c1)O[C@@H](c1cccc(O)c1O)[C@H](O)C2=O	–	Non-Toxic	≥ 100
24.6	COc1ccc2c(c1)O[C@H](c1cccc(O)c1O)[C@@H](O)C2=O	–	Non-Toxic	≥ 100
17	O=C1c2ccc(O)c(O)c2O[C@H](c2cccc(O)c2O)[C@H]1O	95	Non-Toxic	≥ 100
> 100	COc1ccc2c(c1)C(=O)[C@H](O)[C@@H](c1cccc(O)c1O)O2	–	Non-Toxic	≥ 100
77.7	O=C1c2c(O)cccc2O[C@H](c2cccc(O)c2O)[C@H]1O	–	Non-Toxic	≥ 100
> 100	O=C1c2c(O)cccc2O[C@@H](c2cccc(O)c2O)[C@@H]1O	–	Non-Toxic	≥ 100
49.7	COc1ccc2c(c1O)O[C@H](c1cccc(O)c1O)[C@@H](O)C2=O	93	Non-Toxic	≥ 100
> 100	O=C1c2cc(O)ccc2O[C@@H](c2cccc(O)c2O)[C@@H]1O	–	Non-Toxic	≥ 100
50.3	COc1cc2c(cc1OC)C(=O)[C@H](O)[C@@H](c1cccc(O)c1O)O2	93	Non-Toxic	≥ 100
> 100	COc1ccc2c(c1)C(=O)[C@@H](O)[C@H](c1cccc(O)c1O)O2	–	Non-Toxic	≥ 100
88.5	COc1ccc2c(c1O)O[C@@H](c1cccc(O)c1O)[C@H](O)C2=O	–	Non-Toxic	≥ 100
> 100	O=C1c2ccc(O)cc2O[C@@H](c2cccc(O)c2O)[C@@H]1O	–	Non-Toxic	≥ 100
> 100	O=C1c2ccccc2O[C@H](c2cccc(O)c2O)[C@H]1O	–	Non-Toxic	≥ 100
> 100	O=C1c2ccccc2O[C@@H](c2cccc(O)c2O)[C@@H]1O	–	Non-Toxic	≥ 100
> 100	O=C1c2cc(O)ccc2O[C@H](c2cccc(O)c2O)[C@H]1O	–	Non-Toxic	≥ 100
> 100	COc1cc2c(cc1OC)C(=O)[C@@H](O)[C@H](c1cccc(O)c1O)O2	–	Non-Toxic	≥ 100
> 100	O=C1c2ccc(O)c(O)c2O[C@@H](c2cccc(O)c2O)[C@@H]1O	0	Non-Toxic	≥ 100
31.8	Cc1ccc2c(c1)OC(c1cccc(O)c1O)C(O)C2=O (racemic)	–	Non-Toxic	≥ 100
57.6	COc1cc(OC)c2c(c1)OC(c1cccc(O)c1O)C(O)C2=O (racemic)	58	Non-Toxic	≥ 100
45.3	Cc1ccc2c(c1)C(=O)C(O)C(c1cccc(O)c1O)O2 (racemic)	–	Non-Toxic	≥ 100
20.7	Cc1cc2c(cc1C)C(=O)C(O)C(c1cccc(O)c1O)O2 (racemic)	–	Non-Toxic	≥ 100
